Consider 17 molecules from patent publication US9409952B2, “Peptide-compound cyclization method” (Chugai Seiyaku Kabushiki Kaisha, priority 2011, dated 2016).

A short description of series [1]: PAMPA (parallel artificial membrane permeability assay). The class given is in vitro ADME. Particulars: PAMPA. In a few lines:
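Artificial membrane was 10% (w/v) egg lecithin plus 0.5% (w/v) cholesterol in dodecane on a PVDF filter. A 10 mM DMSO stock was added at 0.5% (v/v) to donor buffer (50 mM MOPSO, pH 6.5, 5.0% glycocholic acid). After 18 h at 37 °C, LC/MS or LC/UV gave donor and acceptor levels for Pe.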
In general terms: The PAMPA barrier holds no transporters, so it reflects passive diffusion.

A short description of series [2]: Metabolic stability in human hepatic microsome. The class given is in vitro ADME. The conditions noted are these: microsomes.
The mark [3] stands for this setting: membrane permeation rate (Pe), 50 mM MOPSO buffer pH 6.5 with 5.0% glycocholic acid, 37° C., 18 hours, read-out: iPAMPA Pe.
Where [4] appears, read: pH 7.4, human hepatic microsome, NADPH(+), read-out: CL NADPH(+).

Where two headings read alike, the source gives them in different places. Starred links: 1 amine or outer side, 2 acyl side, 3 side chain; linkers in the order of their positions; H or OH if unused. Positions of bridges follow the written chain, without caps; N, C: chain ends. Non-standard residues stand in square brackets, D forms with d. Residues, ends and D or L forms follow the SMILES beside them. *: point of attachment. NMePhe(3-Cl) = CN[C@@H](Cc1cccc(Cl)c1)C(=O)O; NMeF = CN[C@@H](Cc1ccccc1)C(=O)O; NMeGABA = CN(CCCC(=O)[*:2])[*:1]; NMeI = CC[C@H](C)[C@H](NC)C(=O)O; NMeβAla = CN(CCC(=O)[*:2])[*:1]; NMeL = CN[C@@H](CC(C)C)C(=O)O; NMeV = CN[C@H](C(=O)O)C(C)C; NMeA = CN[C@@H](C)C(=O)O; Piperidide = C1CCN(*)CC1; dNMeA = CN[C@H](C)C(=O)O; β3hA = C[C@H](N)CC(=O)O; Sar = CNCC(=O)O; tBu = CC(C)(C)*

`CC[C@H](C)[C@H]1C(=O)N(C)[C@@H](CC(C)C)C(=O)N[C@H](C(=O)N2CCCCC2)CC(=O)N[C@H](C)C(=O)N[C@@H]([C@@H](C)O)C(=O)N(C)[C@@H](C)C(=O)N(C)[C@@H](Cc2ccccc2)C(=O)N2CCC[C@H]2C(=O)N[C@@H](C)C(=O)N(C)[C@@H](C(C)C)C(=O)N[C@@H](Cc2ccccc2)C(=O)N1C` [DP-65] ([dA]T[NMeA][NMeF]PA[NMeV]F[NMeI][NMeL]D-Piperidide; lactam N-11) came in with a Papp at 18 hours, 50 µM in series [1] (pH 6.5) of 140 nm/s. The same molecule returned a microsomal CLint at 1 uM in series [2] (human, pH 7.4, CL NADPH(+)) of 97 µL/min/mg.
The matching figures for `CC[C@H](C)[C@@H]1NC(=O)[C@H](C(C)C)N(C)C(=O)[C@H](CC(C)C)N(C)C(=O)[C@H](C)N(C)C(=O)[C@H]([C@@H](C)O)NC(=O)[C@H](Cc2ccccc2)N(C)C(=O)CCN(C)C(=O)C[C@@H](C(=O)N(C)[C@@H](Cc2ccccc2)C(=O)N(C)[C@@H](Cc2ccccc2)C(=O)N[C@@H](C)C(=O)N2CCCCC2)NC(=O)[C@H](C)N(C)C(=O)[C@H](CC(C)C)N(C)C1=O` [DP-297] ([NMeβAla][NMeF]T[NMeA][NMeL][NMeV]I[NMeL][NMeA]D[NMeF][NMeF]A-Piperidide; lactam N-10): 190 nm/s and 78 µL/min/mg.
Turning to `CC(C)C[C@H]1C(=O)N(C)[C@@H](Cc2ccccc2)C(=O)N[C@@H](Cc2ccccc2)C(=O)N(C)[C@@H](C)C(=O)N(C)[C@@H](C(C)C)C(=O)N[C@@H]([C@@H](C)O)C(=O)N[C@H](C(=O)N2CCCCC2)CC(=O)N(C)[C@@H](C)C(=O)N[C@@H](COC(C)(C)C)C(=O)NCC(=O)N1C` [DP-438] ([NMeA]S(tBu)G[NMeL][NMeF]F[NMeA][NMeV]TD-Piperidide; lactam N-10), the Papp at 18 hours, 50 µM in series [1] (setting [3]) was determined as 380 nm/s. Further, the microsomal CLint at 1 uM in series [2] (setting [4]) stood at 155 µL/min/mg.
For the molecule `CC[C@H](C)[C@@H]1NC(=O)[C@H](Cc2ccccc2)N(C)C(=O)[C@H](C(C)C)N(C)C(=O)[C@H](Cc2ccccc2)NC(=O)[C@H](CC(C)C)N(C)C(=O)[C@H](CC(C)C)NC(=O)[C@@H](C(C)C)NC(=O)C[C@@H](C(=O)N2CCCCC2)NC(=O)[C@H]([C@@H](C)O)NC(=O)[C@H](C)NC(=O)[C@H](C)N(C)C1=O` [DP-230] ([dV]L[NMeL]F[NMeV][NMeF]I[NMeA]ATD-Piperidide; lactam N-11), the Papp at 18 hours, 50 µM in series [1] (setting [3]) amounted to 440 nm/s. For the same molecule, the microsomal CLint at 1 uM in series [2] (setting [4]) is 31 µL/min/mg.
With `CC[C@H](C)[C@H](NC(=O)[C@@H]1CC(=O)N[C@@H](C)C(=O)N[C@@H]([C@@H](C)CC)C(=O)N(C)[C@@H](C)C(=O)N(C)[C@@H](Cc2ccccc2)C(=O)N[C@@H]([C@@H](C)O)C(=O)N(C)[C@@H](Cc2ccccc2)C(=O)N[C@@H](CC(C)C)C(=O)N2CCC[C@H]2C(=O)N1)C(=O)N1CCCCC1` [DP-669] (AI[NMeA][NMeF]T[NMeF]LPDI-Piperidide; lactam N-9), the Papp at 18 hours, 50 µM in series [1] (pH 6.5) was determined as 290 nm/s. In series [2] (human, pH 7.4, CL NADPH(+)), this molecule yielded a microsomal CLint at 1 uM of 54 µL/min/mg.
As to `CC(C)C[C@H]1C(=O)N[C@H](C(=O)N(C)[C@@H](Cc2ccccc2)C(=O)N[C@@H](C)C(=O)N2CCCCC2)CC(=O)N(C)CCCC(=O)N[C@@H](C(C)C)C(=O)N(C)[C@@H](Cc2ccccc2)C(=O)N(C)[C@@H](CC(C)C)C(=O)N[C@@H]([C@@H](C)O)C(=O)N(C)[C@@H](C)C(=O)N(C)CC(=O)N1C` [DP-385] ([NMeGABA]V[NMeF][NMeL]T[NMeA][Sar][NMeL]D[NMeF]A-Piperidide; lactam N-9), in series [1] (setting [3]), the Papp at 18 hours, 50 µM is 180 nm/s. The microsomal CLint at 1 uM in series [2] (setting [4]) amounted to 102 µL/min/mg.
With `CC(C)C[C@@H]1NC(=O)[C@H](Cc2ccccc2)N(C)C(=O)[C@H]([C@@H](C)O)NC(=O)[C@H](Cc2ccccc2)N(C)C(=O)[C@H](C)N(C)C(=O)[C@H](C)NC(=O)C[C@@H](C(=O)N2CCCCC2)NC(=O)[C@@H]2CCCN2C1=O` [DP-530] (A[NMeA][NMeF]T[NMeF]LPD-Piperidide; lactam N-8), the Papp at 18 hours, 50 µM in series [1] (pH 6.5) is 110 nm/s. In series [2] (human, pH 7.4, CL NADPH(+)), this molecule showed a microsomal CLint at 1 uM of 37 µL/min/mg.
For the molecule `CC(C)C[C@H]1C(=O)N[C@@H](Cc2ccccc2)C(=O)N(C)[C@@H](C)C(=O)N(C)[C@@H](C)C(=O)N[C@@H]([C@@H](C)O)C(=O)N(C)CC(=O)N(C)[C@@H](Cc2ccccc2)C(=O)N[C@H](C(=O)N(C)[C@@H](Cc2ccccc2)C(=O)N[C@@H](C)C(=O)N2CCCCC2)CC(=O)N(C)[C@H](C)C(=O)N(C)[C@@H](C)C(=O)N[C@@H](C)C(=O)N1C` [DP-363] ([dNMeA][NMeA]A[NMeL]F[NMeA][NMeA]T[Sar][NMeF]D[NMeF]A-Piperidide; lactam N-11), the Papp at 18 hours, 50 µM in series [1] (setting [3]) came out at 50 nm/s. Moreover, in series [2] (setting [4]), the microsomal CLint at 1 uM was 15 µL/min/mg.
For `CC(C)C[C@@H]1NC(=O)[C@H](C)NC(=O)[C@H]([C@@H](C)O)NC(=O)[C@H](CC(C)C)NC(=O)[C@H](CC(C)C)NC(=O)[C@H](C(C)C)NC(=O)CCN(C)C(=O)C[C@@H](C(=O)N2CCCCC2)NC(=O)[C@H](CC(C)C)NC(=O)[C@H](Cc2ccccc2)NC(=O)[C@H](CC(C)C)NC1=O` [DP-514] ([NMeβAla]VLLTALLFLD-Piperidide; lactam N-11), in series [1] (setting [3]), the Papp at 18 hours, 50 µM amounted to 68 nm/s. Besides, the microsomal CLint at 1 uM in series [2] (setting [4]) worked out at 103 µL/min/mg.
Turning to `CC(C)C[C@@H]1NC(=O)[C@H](C)NC(=O)C[C@H](C)NC(=O)[C@H](Cc2ccccc2)N(C)C(=O)[C@H](CC(C)C)N(C)C(=O)[C@H](C)NC(=O)[C@H](Cc2ccccc2)N(C)C(=O)[C@H](CC(C)C)N(C)C1=O` [DP-798] (cyclo(AL[NMeL][NMeF]A[NMeL][NMeF][β3hA])), the Papp at 18 hours, 50 µM in series [1] (setting [3]) stood at 690 nm/s. The microsomal CLint at 1 uM in series [2] (setting [4]) was 1540 µL/min/mg.
The matching figures for `CC[C@H](C)[C@@H]1NC(=O)[C@H](CC(C)C)N(C)C(=O)[C@@H](C(C)C)NC(=O)C[C@H](C)NC(=O)[C@H](CC(C)C)N(C)C(=O)[C@H](C)N(C)C(=O)[C@H]([C@@H](C)O)NC(=O)[C@H](Cc2cccc(Cl)c2)N(C)C(=O)[C@H](C)N(C)C1=O` [DP-828] (cyclo(I[NMeA][NMePhe(3-Cl)]T[NMeA][NMeL][β3hA][dV][NMeL])): 420 nm/s and 154 µL/min/mg.
For the molecule `CC(C)C[C@@H]1NC(=O)[C@H](Cc2ccccc2)N(C)C(=O)[C@H](C(C)C)N(C)C(=O)CN(C)C(=O)[C@H]([C@@H](C)O)NC(=O)[C@H](Cc2ccccc2)N(C)C(=O)[C@H](CC(C)C)N(C)C(=O)[C@H](CC(C)C)N(C)C(=O)[C@H](C)NC(=O)[C@@H](C(C)C)NC(=O)C[C@@H](C(=O)N(C)[C@@H](Cc2ccccc2)C(=O)N[C@@H](C)C(=O)N2CCCCC2)NC1=O` [DP-484] ([dV]A[NMeL][NMeL][NMeF]T[Sar][NMeV][NMeF]LD[NMeF]A-Piperidide; lactam N-11), the Papp at 18 hours, 50 µM in series [1] (setting [3]) was found to be 130 nm/s. Also, the microsomal CLint at 1 uM in series [2] (setting [4]) was found to be 29 µL/min/mg.
With `CC(C)C[C@H]1C(=O)N[C@@H]([C@@H](C)O)C(=O)N(C)[C@@H](C)C(=O)N(C)[C@@H](CC(C)C)C(=O)N[C@H](C(=O)N(C)[C@@H](Cc2ccccc2)C(=O)N[C@@H](C)C(=O)N2CCCCC2)CC(=O)N(C)CCC(=O)N(C)[C@@H](Cc2ccccc2)C(=O)N(C)[C@@H](C(C)C)C(=O)N[C@@H](C(C)C)C(=O)N1C` [DP-358] ([NMeβAla][NMeF][NMeV]V[NMeL]T[NMeA][NMeL]D[NMeF]A-Piperidide; lactam N-9), the Papp at 18 hours, 50 µM in series [1] (setting [3]) worked out at 320 nm/s. Also, the microsomal CLint at 1 uM in series [2] (setting [4]) was 82 µL/min/mg.
On the same counts, the results for `CC(C)C[C@H]1C(=O)N[C@H](C(=O)N(C)[C@@H](Cc2ccccc2)C(=O)N[C@@H](C)C(=O)N2CCCCC2)CC(=O)N(C)CCC(=O)N[C@@H]([C@@H](C)O)C(=O)N(C)[C@@H](C)C(=O)N(C)[C@@H](CC(C)C)C(=O)N[C@@H](C(C)C)C(=O)N(C)[C@@H](Cc2ccccc2)C(=O)N[C@@H](Cc2ccccc2)C(=O)N1C` [DP-379] ([NMeβAla]T[NMeA][NMeL]V[NMeF]F[NMeL]D[NMeF]A-Piperidide; lactam N-9) are 410 nm/s and 236 µL/min/mg.
On the same counts, the results for `CC(C)C[C@H]1C(=O)N[C@@H]([C@@H](C)O)C(=O)N(C)[C@@H](C)C(=O)N[C@H](C(=O)N(C)[C@@H](Cc2ccccc2)C(=O)N[C@@H](C)C(=O)N2CCCCC2)CC(=O)N(C)CCC(=O)N(C)[C@@H](C(C)C)C(=O)N(C)[C@@H](Cc2ccccc2)C(=O)N(C)[C@@H](Cc2ccccc2)C(=O)N[C@@H](C)C(=O)N(C)[C@@H](C)C(=O)N1C` [DP-370] ([NMeβAla][NMeV][NMeF][NMeF]A[NMeA][NMeL]T[NMeA]D[NMeF]A-Piperidide; lactam N-10) are 250 nm/s and 36 µL/min/mg.
Take `CC[C@H](C)[C@H]1C(=O)N(C)[C@@H](C)C(=O)N(C)[C@@H](CC(C)C)C(=O)N[C@@H](COC(C)(C)C)C(=O)N(C)[C@@H](CC(C)C)C(=O)N[C@@H](C)CC(=O)N(C)[C@@H](C)C(=O)N(C)[C@@H](Cc2ccccc2)C(=O)N[C@@H](CC(C)C)C(=O)N(C)[C@@H](CC(C)C)C(=O)N[C@@H]([C@@H](C)O)C(=O)N1C` [DP-817] (cyclo(L[NMeL]T[NMeI][NMeA][NMeL]S(tBu)[NMeL][β3hA][NMeA][NMeF])): the Papp at 18 hours, 50 µM in series [1] (setting [3]) came out at 250 nm/s. Also, the microsomal CLint at 1 uM in series [2] (setting [4]) came to 165 µL/min/mg.
On the same counts, the results for `CC[C@H](C)[C@@H]1NC(=O)[C@H](Cc2ccccc2)N(C)C(=O)[C@H]([C@@H](C)O)NC(=O)[C@@H](C)NC(=O)C[C@@H](C(=O)N(C)[C@@H](Cc2ccccc2)C(=O)N[C@@H](C)C(=O)N2CCCCC2)NC(=O)[C@H](CC(C)C)N(C)C(=O)[C@H](CC(C)C)N(C)C(=O)[C@H](Cc2ccccc2)N(C)C(=O)[C@H](CC(C)C)N(C)C(=O)[C@H](C)N(C)C1=O` [DP-189] ([dA]T[NMeF]I[NMeA][NMeL][NMeF][NMeL][NMeL]D[NMeF]A-Piperidide; lactam N-10) are 14 nm/s and 3 µL/min/mg.
